# According to patent US20230117592A1 (SRI International, priority 2019, published 2023):
# Values joined by “and” are separate entries in the source; they are usually repeats but may differ in a detail not shown here. Equal entries are not always repeated. Where two headings read alike, the source gives them in different places.
# How the values were obtained:
# 5-LOX = target: T1, 5-LOX (Homo sapiens, UniProt P09917); assay: 5-LOX fluorescent assay (in vitro lipoxygenase inhibition); assay type: biochemical; details: recombinant 5-LOX cell lysate, 20 μM AA, DHR123 fluorescence; several values in a cell = repeat determinations; read-out: IC50 (μM) values for in vitro lipoxygenase inhibition, 5-LOX
# T1 sequence (P09917 1-674): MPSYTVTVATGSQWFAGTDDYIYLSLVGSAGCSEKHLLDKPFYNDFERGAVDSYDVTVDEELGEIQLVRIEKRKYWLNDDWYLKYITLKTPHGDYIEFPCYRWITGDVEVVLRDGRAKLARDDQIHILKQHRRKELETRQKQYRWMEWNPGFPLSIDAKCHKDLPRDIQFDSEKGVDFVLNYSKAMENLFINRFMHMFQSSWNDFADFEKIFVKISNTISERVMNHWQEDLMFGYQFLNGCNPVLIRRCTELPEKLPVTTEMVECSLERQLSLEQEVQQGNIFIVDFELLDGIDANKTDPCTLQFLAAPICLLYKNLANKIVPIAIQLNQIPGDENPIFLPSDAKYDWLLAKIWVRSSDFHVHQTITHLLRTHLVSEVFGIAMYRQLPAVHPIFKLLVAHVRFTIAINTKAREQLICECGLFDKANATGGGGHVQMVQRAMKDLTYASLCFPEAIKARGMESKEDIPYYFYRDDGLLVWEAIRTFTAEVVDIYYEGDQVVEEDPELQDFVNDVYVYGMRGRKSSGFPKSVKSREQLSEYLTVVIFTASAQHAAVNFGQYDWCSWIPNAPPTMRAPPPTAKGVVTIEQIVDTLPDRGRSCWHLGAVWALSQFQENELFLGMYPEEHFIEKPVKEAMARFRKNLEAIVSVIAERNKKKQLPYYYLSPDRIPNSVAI
# Description: 5-LOX FI assay Fluorescent Assay
# The enzyme assay (100 μL) contained 50 mM Tris, pH 7.5, 0.1 mM EDTA, 0.3 mM CaCl2, 20 μM AA, 100 μM ATP, 1 μM DHR123, and recombinant 5-LOX cell lysate (0.5 μL/100 μL). Inhibitors (dissolved in DMSO) were plated at 1 μL into 96-well assay microplates followed by a 40 μL addition of a solution containing 5-LOX enzyme. Enzyme was pre-incubated with compounds for 15 mins. The assay was initiated by the addition of a 40 μL substrate solution containing AA and ATP, and 20 μL addition of a solution containing DHR123. […] Percent inhibition was calculated for each compound dose for IC50 curve fitting using 4 Parameter Logistic Model or Sigmoidal Dose-Response Model.
# 12-LOX = target: T2, 12-LOX (Homo sapiens, UniProt P18054); assay: 12-LOX fluorescent assay (in vitro lipoxygenase inhibition); assay type: biochemical
# T2 sequence (P18054 1-663): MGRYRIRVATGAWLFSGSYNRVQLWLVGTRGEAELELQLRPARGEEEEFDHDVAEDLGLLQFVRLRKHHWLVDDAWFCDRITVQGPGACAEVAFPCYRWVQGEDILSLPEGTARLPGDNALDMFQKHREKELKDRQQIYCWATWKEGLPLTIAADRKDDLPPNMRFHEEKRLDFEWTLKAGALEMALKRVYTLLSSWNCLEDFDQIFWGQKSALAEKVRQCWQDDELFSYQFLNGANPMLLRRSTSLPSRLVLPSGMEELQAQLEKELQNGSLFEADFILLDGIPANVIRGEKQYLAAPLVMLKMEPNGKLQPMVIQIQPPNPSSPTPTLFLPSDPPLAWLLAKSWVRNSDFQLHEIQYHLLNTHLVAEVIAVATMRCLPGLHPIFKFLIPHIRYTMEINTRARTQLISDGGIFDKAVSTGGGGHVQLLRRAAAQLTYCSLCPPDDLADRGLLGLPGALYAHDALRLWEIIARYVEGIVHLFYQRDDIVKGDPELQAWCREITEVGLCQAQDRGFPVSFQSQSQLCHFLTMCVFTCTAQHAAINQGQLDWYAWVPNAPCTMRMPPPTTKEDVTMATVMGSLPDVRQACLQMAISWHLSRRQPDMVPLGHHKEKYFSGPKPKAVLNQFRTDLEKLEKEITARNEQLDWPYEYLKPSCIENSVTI
# Description: 12-LOX/15-LOX Fluorescent Assay
# The enzyme assay (100 ul) contained 50 mM Tris, pH 7.5, 0.05% Tween-20, 20 μM AA/LA, 1 μM DHR123, and 100 nM recombinant 12-LOX enzyme/50 nM recombinant 15-LOX enzyme. Inhibitors (dissolved in DMSO) were plated at 1 μL into 96-well assay microplates followed by a 40 μL addition of a solution containing 12-LOX/15-LOX enzyme. Enzyme was pre-incubated with compounds for 15 mins. The assay was initiated by the addition of a 40 μL substrate solution containing AA/LA, and 20μL addition of a solution containing DHR123. […] Percent inhibition was calculated for each compound dose for IC50 curve fitting using 4 Parameter Logistic Model or Sigmoidal Dose-Response Model.
# [1] = 100 nM recombinant 12-LOX, 20 μM AA, DHR123 fluorescence, several values in a cell = repeat determinations, read-out: IC50 (μM) values for in vitro lipoxygenase inhibition, 12-LOX
SMILES,IC50 (5-LOX),IC50 (12-LOX; [1]),IC50 (12-LOX)
"COc1ccc(CNc2ccc3c(-c4ccccc4)cc(=O)[nH]c3c2OCCN(C)C)cc1 [SS20308-0053-01, 8-(2-(dimethylamino)ethoxy)-7-((4-methoxybenzyl)amino)-4-phenylquinolin-2(1H)-one]",3.36 µM,5.2 µM,–
"CC1(C)CC(Nc2ccc(NCCn3cncn3)cc2)c2ccccc21 (stereo not drawn) [SS20308-0275-01, N^1-(2-(1H-1,2,4-triazol-1-yl)ethyl)-N^4-(3,3-dimethyl-2,3-dihydro-1H-inden-1-yl)benzene-1,4-diamine]",0.26 µM and 0.1 µM,0.05 µM and 0.04 µM,–
"c1ccc(CNc2ccc(NCCn3cncn3)c(-c3cccnc3)c2)cc1 [SS20308-0216-01, N^1-(2-(1H-1,2,4-triazol-1-yl)ethyl)-N^4-benzyl-2-(pyridin-3-yl)benzene-1,4-diamine]",0.04 µM,0.03 µM,–
"c1ccc(Nc2ccc(-c3ccccc3)c(OCCn3cncn3)c2)cc1 [SS20308-0132-01, 2-(2-(1H-1,2,4-triazol-1-yl)ethoxy)-N-phenyl-[1,1′-biphenyl]-4-amine]",0.6 µM,–,0.49 µM
"Fc1ccc(CNc2ccc(NCCCn3cncn3)c(F)c2)cc1 [SS20308-0236-01, N^1-(3-(1H-1,2,4-triazol-1-yl)propyl)-2-fluoro-N^4-(4-fluorobenzyl)benzene-1,4-diamine]",0.1 µM and 0.18 µM,0.04 µM and 0.03 µM,–
"Cc1cc(Nc2ccc(Cl)c(F)c2)ccc1NCC1(Cn2ccnc2)COC1 [SS20308-0328-01, N^1-((3-((1H-imidazol-1-yl)methyl)oxetan-3-yl)methyl)-N^4-(4-chloro-3-fluorophenyl)-2-methylbenzene-1,4-diamine]",0.04 µM,0.03 µM,–
"Fc1ccc(CNc2cccc(NCCn3cncn3)n2)cc1 [SS20308-0249-01, N^2-(2-(1H-1,2,4-triazol-1-yl)ethyl)-N^6-(4-fluorobenzyl)pyridine-2,6-diamine]",1.59 µM,0.37 µM,–
"Clc1ccc(-c2ccc(Nc3ccccc3)cc2NCCn2cncn2)cc1 [SS20308-0147-01, N^2-(2-(1H-1,2,4-triazol-1-yl)ethyl)-4′-chloro-N^4-phenylbiphenyl-2,4-diamine]",0.17 µM,0.14 µM,–
"Cc1cccc(Nc2ccc(NCC3(Cn4cncn4)COC3)c(C)c2)n1 [SS20308-0289-01, N^1-((3-((1H-1,2,4-triazol-1-yl)methyl)oxetan-3-yl)methyl)-2-methyl-N^4-(6-methylpyridin-2-yl)benzene-1,4-diamine]",0.25 µM and 0.61 µM,0.07 µM and 0.15 µM,–
"O=C(Nc1ccc(-c2ccccc2)c(NCCn2cncn2)c1)c1ccccc1 [SS20308-0135-01, N-(2-((2-(1H-1,2,4-triazol-1-yl)ethyl)amino)-[1,1′-biphenyl]-4-yl)benzamide]",25.7 µM,20.8 µM,–
"Cn1cncc1-c1ccc(Nc2ccccc2)cc1NCCn1cncn1 [SS20308-0177-01, N^3-(2-(1H-1,2,4-triazol-1-yl)ethyl)-4-(1-methyl-1H-imidazol-5-yl)-N^1-phenylbenzene-1,3-diamine]",1.45 µM,0.72 µM,–
"CN(C)CCCNc1ccc(NC(c2ccccc2)C(F)(F)F)cc1F (stereo not drawn) [SS20308-0302-01, N^1-(3-(dimethylamino)propyl)-2-fluoro-N^4-(2,2,2-trifluoro-1-phenylethyl)benzene-1,4-diamine]",0.25 µM,0.21 µM,–
"c1ccc(CNc2ccc(NCCn3cncn3)c(-c3ccncc3)c2)cc1 [SS20308-0215-01, N^1-(2-(1H-1,2,4-triazol-1-yl)ethyl)-N^4-benzyl-2-(pyridin-4-yl)benzene-1,4-diamine]",0.07 µM and 0.09 µM,0.04 µM and 0.03 µM,–
"CN(C)CCOc1c(Nc2ccccc2)ccc2c(-c3ccccc3)cc(=O)[nH]c12 [SS20308-0072-01, 8-(2-(dimethylamino)ethoxy)-4-phenyl-7-(phenylamino)quinolin-2(1H)-one]",7.23 µM,3.37 µM,–
"FC1(F)CCC(Nc2ccc(NCC3(Cn4cncn4)COC3)cc2)CC1 [SS20308-0263-01, N^1-((3-((1H-1,2,4-triazol-1-yl)methyl)oxetan-3-yl)methyl)-N^4-(4,4-difluorocyclohexyl) benzene-1,4-diamine]",0.22 µM and 0.12 µM,0.06 µM and 0.03 µM,–
"Cc1cc(Nc2ccc(Cl)c(F)c2)ccc1NCC1(CN2CCOCC2)COC1 [SS20308-0323-01, N^4-(4-chloro-3-fluorophenyl)-2-methyl-N^1-((3-(morpholinomethyl)oxetan-3-yl)methyl) benzene-1,4-diamine]",0.05 µM,0.02 µM,–
"c1ccc(CNc2ccc(NCCn3cncn3)c(-c3ccccc3)c2)cc1 [SS20308-0145-01, N^2-(2-(1H-1,2,4-triazol-1-yl)ethyl)-N^5-benzyl-[1,1′-biphenyl]-2,5-diamine]",30 nM and 50 nM (2×),0.02 µM,–
"Cc1cc(Nc2ccc(F)cc2Cl)ccc1NCC1(CN2CCOCC2)COC1 [SS20308-0309-01, N^4-(2-chloro-4-fluorophenyl)-2-methyl-N^1-((3-(morpholinomethyl)oxetan-3-yl)methyl) benzene-1,4-diamine]",0.09 µM and 0.12 µM,0.04 µM and 0.08 µM,–
"c1ncn(CCCNc2ccc(NCC3CCCCC3)cc2)n1 [SS20308-0240-01, N^1-(3-(1H-1,2,4-triazol-1-yl)propyl)-N^4-(cyclohexylmethyl)benzene-1,4-diamine]",0.02 µM and 0.03 µM,0.01 µM,–
"FC1(F)CCC(CNc2ccc(NCCn3cncn3)cn2)CC1 [SS20308-0247-01, N^5-(2-(1H-1,2,4-triazol-1-yl)ethyl)-N^2-((4,4-difluorocyclohexyl)methyl)pyridine-2,5-diamine]",0.63 µM,0.13 µM,–
"Fc1cc(Nc2ccccc2Cl)ccc1NCC1(Cn2cncn2)COC1 [SS20308-0313-01, N^1-((3-((1H-1,2,4-triazol-1-yl)methyl)oxetan-3-yl)methyl)-N^4-(2-chlorophenyl)-2-fluorobenzene-1,4-diamine]",0.35 µM,0.11 µM,–
"c1ncn(CCCNc2ccc(NC3CCCCC3)cc2)n1 [SS20308-0239-01, N^1-(3-(1H-1,2,4-triazol-1-yl)propyl)-N^4-cyclohexylbenzene-1,4-diamine]",0.04 µM and 0.07 µM,–,0.03 µM
"OCc1ccccc1-c1ccc(Nc2ccccc2)cc1NCCn1cncn1 [SS20308-0143-01, (2′-(2-(1H-1,2,4-triazol-1-yl)ethylamino)-4′-(phenylamino)biphenyl-2-yl)methanol]",0.94 µM,0.33 µM,–
"Cc1cc(Nc2ccc(F)cc2Cl)ccc1NCC1(Cn2cncn2)COC1 [SS20308-0272-01, N1-((3-((1H-1,2,4-triazol-1-yl)methyl)oxetan-3-yl)methyl)-N4-(2-chloro-4-fluorophenyl)-2-methylbenzene-1,4-diamine]",0.22 µM and 0.28 µM and 0.11 µM and 0.26 µM,30 nM and 80 nM and 60 nM (2×),–
